Some results are limits rather than exact numbers.

T3 sequence (P50406 whole entry): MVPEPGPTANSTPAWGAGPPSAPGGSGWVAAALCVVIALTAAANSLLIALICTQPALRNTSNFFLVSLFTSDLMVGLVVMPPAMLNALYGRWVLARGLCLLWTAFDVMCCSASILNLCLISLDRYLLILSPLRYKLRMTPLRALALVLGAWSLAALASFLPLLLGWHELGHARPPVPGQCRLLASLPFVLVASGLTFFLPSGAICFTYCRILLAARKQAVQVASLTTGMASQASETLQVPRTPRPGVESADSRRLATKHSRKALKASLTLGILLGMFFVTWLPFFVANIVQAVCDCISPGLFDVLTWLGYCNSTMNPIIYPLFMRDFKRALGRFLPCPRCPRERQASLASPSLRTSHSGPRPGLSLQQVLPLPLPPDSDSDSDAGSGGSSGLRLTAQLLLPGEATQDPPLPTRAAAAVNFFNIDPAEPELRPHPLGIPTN
T5 sequence (P14416 1-414 isoform P14416-2): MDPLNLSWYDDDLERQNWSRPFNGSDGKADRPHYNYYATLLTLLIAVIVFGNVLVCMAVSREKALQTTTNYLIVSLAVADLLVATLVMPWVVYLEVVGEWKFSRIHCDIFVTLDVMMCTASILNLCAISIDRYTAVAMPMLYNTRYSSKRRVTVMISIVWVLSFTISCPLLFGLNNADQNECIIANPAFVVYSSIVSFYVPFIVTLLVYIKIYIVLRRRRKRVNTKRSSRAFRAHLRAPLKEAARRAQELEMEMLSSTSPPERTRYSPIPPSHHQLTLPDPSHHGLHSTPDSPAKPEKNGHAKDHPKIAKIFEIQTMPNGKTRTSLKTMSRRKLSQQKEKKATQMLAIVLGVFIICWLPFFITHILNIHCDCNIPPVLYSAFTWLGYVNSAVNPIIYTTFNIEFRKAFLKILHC

The first assay deals with T1, human 5-HT1a receptors (Homo sapiens, UniProt P08908).
T1 construct: expressed in transfected cells; host or cells: CHO K1 cells
T1 sequence (P08908 1-422): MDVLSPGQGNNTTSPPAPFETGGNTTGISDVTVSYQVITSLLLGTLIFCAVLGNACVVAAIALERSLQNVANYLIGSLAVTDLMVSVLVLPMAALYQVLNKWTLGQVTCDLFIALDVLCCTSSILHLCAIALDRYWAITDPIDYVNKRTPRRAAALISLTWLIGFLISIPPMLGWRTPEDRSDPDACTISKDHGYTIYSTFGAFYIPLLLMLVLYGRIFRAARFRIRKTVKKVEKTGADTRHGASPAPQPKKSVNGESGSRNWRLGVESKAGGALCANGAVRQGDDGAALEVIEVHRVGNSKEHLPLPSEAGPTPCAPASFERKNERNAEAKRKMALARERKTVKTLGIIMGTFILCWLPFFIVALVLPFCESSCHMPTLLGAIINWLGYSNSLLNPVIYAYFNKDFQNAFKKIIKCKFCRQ
Put plainly: Competition radioligand binding, h5-HT1a.
Conditions: not given
Put shortly: (§1)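 Human 5-HT1a and 5-HT2a receptors were expressed in CHO K1 cell membranes. Competition binding was stopped by filtration onto PEI-soaked GF/C filters and counted by liquid scintillation. IC50 values and Hill slopes came from nonlinear regression, and Ki was calculated by Cheng–Prusoff.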
The term Ki denotes a measure of affinity in units of concentration, obtained from inhibition or displacement. Regarding `N=C(NCc1ccccc1-c1ccccc1)NC(=O)N1CCC(Nc2ccccc2)CC1` [Example 79, N-[(4-Anilino-1-piperidinyl)carbonyl]-N′-([1,1′-biphenyl]-2-ylmethyl)guanidine], the Ki was over 4000 nM.
The same measure, in the same setting: as for `N=C(NCc1c(Cl)cccc1Oc1ccccc1)NC(=O)N1CCC(Nc2ccccc2)CC1` [Example 80, N-[(4-Anilino-1-piperidinyl)carbonyl]-N′-(2-chloro-6-phenoxybenzyl)guanidine], the figure is 3650 nM; as for `COc1cccc(OC)c1CNC(=N)NC(=O)N1CCC(Nc2ccccc2)CC1` [Example 81, N-[(4-Anilino-1-piperidinyl)carbonyl]-N′-(2,6-dimethoxybenzyl)guanidine], 2940 nM.

The assay is the same for the next values; noted with them: [3H]5-CT; membranes of CHO K1 cells; read-out: Ki 5-HT1A.
For the compound `CNC(=O)NC(=N)NCc1c(OC)cccc1OC` [Example 85, 2-{[(Imino{[(methylamino)carbonyl]amino}methyl)amino]methyl}-1,3-dimethoxybenzene], the Ki was 310 nM.
The same measure, in the same setting: as for `CNC(=O)NC(=N)NCc1ccccc1Oc1ccccc1Cl` [Example 86, 1-(2-Chlorophenoxy)-2-{[(imino{[(methylamino)carbonyl]amino}methyl)amino]methyl}benzene], the figure is 920 nM; as for `CNC(=O)NC(=N)NCc1cccc(-c2ccccc2)c1` [Example 87, 3-{[(Imino{[(methylamino)carbonyl]amino}methyl)amino]methyl}-1,1′-biphenyl], over 400 nM.

The target of the next assay is T2, human 5HT2a receptors (Homo sapiens, UniProt P28223).
T2 construct: expressed in transfected cells; host or cells: CHO K1 cells
T2 sequence (P28223 whole entry): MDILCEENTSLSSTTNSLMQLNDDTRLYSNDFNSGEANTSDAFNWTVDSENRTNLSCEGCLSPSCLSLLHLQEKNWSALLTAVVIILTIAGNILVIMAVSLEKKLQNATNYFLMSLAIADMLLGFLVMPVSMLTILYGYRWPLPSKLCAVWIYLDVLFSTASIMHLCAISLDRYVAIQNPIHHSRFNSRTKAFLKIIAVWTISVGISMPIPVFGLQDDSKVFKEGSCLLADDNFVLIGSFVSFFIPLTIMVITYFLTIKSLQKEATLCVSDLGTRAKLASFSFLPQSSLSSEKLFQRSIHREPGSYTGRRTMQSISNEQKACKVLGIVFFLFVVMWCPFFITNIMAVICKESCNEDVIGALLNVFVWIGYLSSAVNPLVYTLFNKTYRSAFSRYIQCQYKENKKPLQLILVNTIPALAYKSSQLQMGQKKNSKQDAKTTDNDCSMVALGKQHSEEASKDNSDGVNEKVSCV
Put plainly: Competition radioligand binding, 5-HT2A.
Conditions: not given
Put shortly: as §1
Turning to `N=C(NCc1ccccc1-c1ccccc1)NC(=O)N1CCC(Nc2ccccc2)CC1` [Example 79, N-[(4-Anilino-1-piperidinyl)carbonyl]-N′-([1,1′-biphenyl]-2-ylmethyl)guanidine], the affinity corresponds to a Ki of 910 nM.
Still for that read-out and setting: as for `N=C(NCc1c(Cl)cccc1Oc1ccccc1)NC(=O)N1CCC(Nc2ccccc2)CC1` [Example 80, N-[(4-Anilino-1-piperidinyl)carbonyl]-N′-(2-chloro-6-phenoxybenzyl)guanidine], the figure is 930 nM.
`COc1cccc(OC)c1CNC(=N)NC(=O)N1CCC(Nc2ccccc2)CC1` [Example 81, N-[(4-Anilino-1-piperidinyl)carbonyl]-N′-(2,6-dimethoxybenzyl)guanidine] displayed an inhibition constant (Ki) of 180 nM.

The assay is the same for the next values; noted with them: [3H]Ketanserin; membranes of CHO K1 cells; read-out: Ki 5-HT2A.
Regarding `CNC(=O)NC(=N)NCc1c(OC)cccc1OC` [Example 85, 2-{[(Imino{[(methylamino)carbonyl]amino}methyl)amino]methyl}-1,3-dimethoxybenzene], the Ki turned out to be 280 nM.
For the compound `CNC(=O)NC(=N)NCc1ccccc1Oc1ccccc1Cl` [Example 86, 1-(2-Chlorophenoxy)-2-{[(imino{[(methylamino)carbonyl]amino}methyl)amino]methyl}benzene], the Ki was 290 nM.
On the same count and under the same terms, the value for `CNC(=O)NC(=N)NCc1cccc(-c2ccccc2)c1` [Example 87, 3-{[(Imino{[(methylamino)carbonyl]amino}methyl)amino]methyl}-1,1′-biphenyl] was 1020 nM.

Another assay concerns the target T3, human 5-HT6 (h5-HT6) receptors (Homo sapiens, UniProt P50406).
T3 construct: purchased Receptor Biology, Inc. (Beltsville, Md.); host or cells: HEK-293 cells
Put plainly: Competition radioligand binding, h5-HT6.
Conditions: not given
Consider `N=C(NCc1ccccc1-c1ccccc1)NC(=O)N1CCC(Nc2ccccc2)CC1` [Example 79, N-[(4-Anilino-1-piperidinyl)carbonyl]-N′-([1,1′-biphenyl]-2-ylmethyl)guanidine], for which the inhibition constant Ki came to 2400 nM.
Still for that read-out and setting: the value for `N=C(NCc1c(Cl)cccc1Oc1ccccc1)NC(=O)N1CCC(Nc2ccccc2)CC1` [Example 80, N-[(4-Anilino-1-piperidinyl)carbonyl]-N′-(2-chloro-6-phenoxybenzyl)guanidine] was 2300 nM; that for `COc1cccc(OC)c1CNC(=N)NC(=O)N1CCC(Nc2ccccc2)CC1` [Example 81, N-[(4-Anilino-1-piperidinyl)carbonyl]-N′-(2,6-dimethoxybenzyl)guanidine] was 4700 nM.

Still in this assay, the particulars now being: [3H]LSD; membranes of HEK-293 cells; read-out: Ki 5-HT6.
Regarding `CNC(=O)NC(=N)NCc1c(OC)cccc1OC` [Example 85, 2-{[(Imino{[(methylamino)carbonyl]amino}methyl)amino]methyl}-1,3-dimethoxybenzene], the inhibition constant Ki was determined as 6340 nM.
On the same count and under the same terms, the value for `CNC(=O)NC(=N)NCc1ccccc1Oc1ccccc1Cl` [Example 86, 1-(2-Chlorophenoxy)-2-{[(imino{[(methylamino)carbonyl]amino}methyl)amino]methyl}benzene] was 580 nM; that for `CNC(=O)NC(=N)NCc1cccc(-c2ccccc2)c1` [Example 87, 3-{[(Imino{[(methylamino)carbonyl]amino}methyl)amino]methyl}-1,1′-biphenyl] was 3360 nM.

The target of another assay is T4, human 5-HT7B (h5-HT7b) receptors (Homo sapiens, UniProt P34969).
T4 construct: expressed in transfected cells
T4 sequence (P34969 1-432 limits assumed): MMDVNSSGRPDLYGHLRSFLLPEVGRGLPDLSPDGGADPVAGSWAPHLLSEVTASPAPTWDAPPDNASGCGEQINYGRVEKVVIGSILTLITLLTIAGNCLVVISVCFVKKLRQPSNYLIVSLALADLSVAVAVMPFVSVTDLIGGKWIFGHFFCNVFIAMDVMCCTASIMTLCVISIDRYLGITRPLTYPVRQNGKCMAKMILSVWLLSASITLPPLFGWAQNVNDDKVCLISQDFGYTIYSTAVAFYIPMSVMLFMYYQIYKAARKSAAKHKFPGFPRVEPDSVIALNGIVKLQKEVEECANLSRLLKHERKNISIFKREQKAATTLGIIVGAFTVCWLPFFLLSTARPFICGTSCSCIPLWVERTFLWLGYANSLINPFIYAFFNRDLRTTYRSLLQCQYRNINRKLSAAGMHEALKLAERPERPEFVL
The assay can be described thus: Competition radioligand binding, h5-HT7b.
Conditions: not given
Put shortly: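 Membranes from HEK 293 cells stably expressing human 5-HT7b incubated with ~0.2 nM [3H]5-CT and varying compound 2 h at 37 °C in HEPES buffer pH 7.4 with pargyline. Nonspecific binding with 1 μM 5-HT; filtration, scintillation counting; IC50 by nonlinear regression converted to Ki via Cheng–Prusoff.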
With `N=C(NCc1ccccc1-c1ccccc1)NC(=O)N1CCC(Nc2ccccc2)CC1` [Example 79, N-[(4-Anilino-1-piperidinyl)carbonyl]-N′-([1,1′-biphenyl]-2-ylmethyl)guanidine], the Ki amounted to 99 nM.
The compound `N=C(NCc1c(Cl)cccc1Oc1ccccc1)NC(=O)N1CCC(Nc2ccccc2)CC1` [Example 80, N-[(4-Anilino-1-piperidinyl)carbonyl]-N′-(2-chloro-6-phenoxybenzyl)guanidine] registered an inhibition constant Ki of 41 nM.
The same measure, in the same setting: as for `COc1cccc(OC)c1CNC(=N)NC(=O)N1CCC(Nc2ccccc2)CC1` [Example 81, N-[(4-Anilino-1-piperidinyl)carbonyl]-N′-(2,6-dimethoxybenzyl)guanidine], the figure is 66 nM.

The same assay, now with this note: [3H]5-CT; membranes of HEK 293 cells; read-out: Ki 5-HT7.
Take `CNC(=O)NC(=N)NCc1c(OC)cccc1OC` [Example 85, 2-{[(Imino{[(methylamino)carbonyl]amino}methyl)amino]methyl}-1,3-dimethoxybenzene]: the Ki stood at 12 nM.
Consider `CNC(=O)NC(=N)NCc1ccccc1Oc1ccccc1Cl` [Example 86, 1-(2-Chlorophenoxy)-2-{[(imino{[(methylamino)carbonyl]amino}methyl)amino]methyl}benzene], for which the inhibition constant (Ki) came out at 6.3 nM.
On the same count and under the same terms, the value for `CNC(=O)NC(=N)NCc1cccc(-c2ccccc2)c1` [Example 87, 3-{[(Imino{[(methylamino)carbonyl]amino}methyl)amino]methyl}-1,1′-biphenyl] was 80 nM.

A further assay concerns the target T5, human D2S dopamine (hD2S-DA) receptors (Homo sapiens, UniProt P14416).
T5 construct: purchased Receptor Biology, Inc. (Beltsville, Md.); host or cells: A9 L cells
The assay can be described thus: Competition radioligand binding, hD2S dopamine.
Conditions: not given
The compound `N=C(NCc1ccccc1-c1ccccc1)NC(=O)N1CCC(Nc2ccccc2)CC1` [Example 79, N-[(4-Anilino-1-piperidinyl)carbonyl]-N′-([1,1′-biphenyl]-2-ylmethyl)guanidine] yielded an inhibitory constant (Ki) of over 2500 nM.
Still for that read-out and setting: the value for `N=C(NCc1c(Cl)cccc1Oc1ccccc1)NC(=O)N1CCC(Nc2ccccc2)CC1` [Example 80, N-[(4-Anilino-1-piperidinyl)carbonyl]-N′-(2-chloro-6-phenoxybenzyl)guanidine] was over 2500 nM.
Same read-out and setting: as for `COc1cccc(OC)c1CNC(=N)NC(=O)N1CCC(Nc2ccccc2)CC1` [Example 81, N-[(4-Anilino-1-piperidinyl)carbonyl]-N′-(2,6-dimethoxybenzyl)guanidine], the figure is 1920 nM.

The same assay, now with this note: [3H]Spiperone; membranes of A9 L cells; read-out: Ki D2.
With `CNC(=O)NC(=N)NCc1c(OC)cccc1OC` [Example 85, 2-{[(Imino{[(methylamino)carbonyl]amino}methyl)amino]methyl}-1,3-dimethoxybenzene], the inhibitory constant (Ki) is over 2500 nM.
On the same count and under the same terms, as for `CNC(=O)NC(=N)NCc1ccccc1Oc1ccccc1Cl` [Example 86, 1-(2-Chlorophenoxy)-2-{[(imino{[(methylamino)carbonyl]amino}methyl)amino]methyl}benzene], the figure is over 2500 nM.
For `CNC(=O)NC(=N)NCc1cccc(-c2ccccc2)c1` [Example 87, 3-{[(Imino{[(methylamino)carbonyl]amino}methyl)amino]methyl}-1,1′-biphenyl], the inhibitory constant (Ki) was over 2500 nM.

For the origin of these results see patent US20040044037A1, “Amidino-urea serotonin receptor ligands and compositions, their pharmaceutical uses, and methods for their snythesis” (priority 2003, published 2004).
